From PubChem BioAssay AID248 (DTP/NCI, 2004)
Inconclusive results and toxic doses are left out. Cut-off read from the data, not from the text of the source: active = T/C of 150% or more; inactive = T/C below 125%.

System: L1210 leukemia ip in BDF1 mice, survival T/C
Assay: NCI In Vivo Anticancer Drug Screen. Data for tumor model L1210 Leukemia (intraperitoneal) in B6D2F1 (BDF1) mice
Conditions: endpoint: mean survival time, higher = longer survival
Procedure, shortened: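 Mice bearing the transplanted tumor received compound or vehicle. Survival of the treated group was divided by that of the vehicle-treated control group to give the ratio.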

[1] = dose: 100.0 mg/kg/injection, schedule: Q01DX001 (ip), vehicle: Klucel (hydroxypropylcellulose) (HPC)
[2] = dose: 200.0 mg/kg/injection, schedule: Q01DX001 (ip), vehicle: Klucel (hydroxypropylcellulose) (HPC)
[3] = dose: 400.0 mg/kg/injection, schedule: Q01DX001 (ip), vehicle: Klucel (hydroxypropylcellulose) (HPC)
[4] = dose: 100.0 mg/kg/injection, schedule: Q04DX003 (ip), vehicle: Klucel (hydroxypropylcellulose) (HPC)
[5] = dose: 200.0 mg/kg/injection, schedule: Q04DX003 (ip), vehicle: Klucel (hydroxypropylcellulose) (HPC)
[6] = dose: 400.0 mg/kg/injection, schedule: Q04DX003 (ip), vehicle: Klucel (hydroxypropylcellulose) (HPC)
[7] = dose: 100.0 mg/kg/injection, schedule: Q01DX001 (ip), vehicle: saline
[8] = dose: 200.0 mg/kg/injection, schedule: Q01DX001 (ip), vehicle: saline
[9] = dose: 400.0 mg/kg/injection, schedule: Q01DX001 (ip), vehicle: saline

Measured: T/C

O=C(Nc1cccc(C(=O)Nc2cccc(C3=NCCN3)c2)c1)Nc1cccc(C(=O)Nc2cccc(C3=NCCN3)c2)c1
inactive: dose: 15.0 mg/kg/injection, schedule: Q01DX Z (ip), vehicle: methylcellulose (MC) 96 % of control | dose: 30.0 mg/kg/injection, schedule: Q01DX Z (ip), vehicle: methylcellulose (MC) 96 % of control | dose: 60.0 mg/kg/injection, schedule: Q01DX Z (ip), vehicle: methylcellulose (MC) 94 % of control | dose: 120.0 mg/kg/injection, schedule: Q01DX Z (ip), vehicle: methylcellulose (MC) 98 % of control | dose: 125.0 mg/kg/injection, schedule: Q01DX Z (ip), vehicle: carboxymethylcellulose (CMC) 110 % of control | dose: 250.0 mg/kg/injection, schedule: Q01DX Z (ip), vehicle: carboxymethylcellulose (CMC) 105 % of control | dose: 500.0 mg/kg/injection, schedule: Q01DX Z (ip), vehicle: carboxymethylcellulose (CMC) 96 % of control

Cc1cc(C)c(N(CC(=O)O)S(=O)(=O)c2ccccc2)c(C)c1F
inactive: [1] 100 % of control | [2] 94 % of control | [3] 89 % of control

CCCCCCCCCC(=O)N1C(C)CCCC1C (stereo not given)
inactive: dose: 100.0 mg/kg/injection, schedule: Q04DX002 (ip), vehicle: saline 94 % of control | dose: 200.0 mg/kg/injection, schedule: Q04DX002 (ip), vehicle: saline 105 % of control | dose: 400.0 mg/kg/injection, schedule: Q04DX002 (ip), vehicle: saline 105 % of control

Cc1ccc2ccccc2c1NCCC(=O)O
inactive: [1] 101 % of control | [4] 104 % of control | [2] 100 % of control | [5] 98 % of control | [3] 91 % of control | [6] 102 % of control

CCCCCc1cc[n+](CC(O)c2ccccc2)cc1 (stereo not given)
inactive: [7] 94 % of control

CC(C(=O)O)C(N)C(=O)O (stereo not given)
inactive: dose: 75.0 mg/kg/injection, schedule: Q04DX003 (ip), vehicle: saline 102 % of control | [1] 88 % of control | [7] 98 % of control | dose: 150.0 mg/kg/injection, schedule: Q04DX003 (ip), vehicle: saline 102 % of control | [2] 97 % of control | [8] 96 % of control | dose: 300.0 mg/kg/injection, schedule: Q04DX003 (ip), vehicle: saline 102 % of control | [3] 92 % of control | [9] 95 % of control

CC(C)=CC(=O)NC(=O)NS(=O)(=O)c1ccc(Cl)cc1
inactive: dose: 50.0 mg/kg/injection, schedule: Q01DX009 (ip), vehicle: Klucel (hydroxypropylcellulose) (HPC) 100 % of control | dose: 100.0 mg/kg/injection, schedule: Q01DX009 (ip), vehicle: Klucel (hydroxypropylcellulose) (HPC) 107 % of control | [4] 105 % of control | dose: 200.0 mg/kg/injection, schedule: Q01DX009 (ip), vehicle: Klucel (hydroxypropylcellulose) (HPC) 98 % of control | [5] 102 % of control | [6] 106 % of control

Nc1nc(SCc2ccccc2)c2ncnnc2n1
inactive: dose: 100.0 mg/kg/injection, schedule: Q01DX001 (ip), vehicle: saline with Tween-80 97 % of control | dose: 200.0 mg/kg/injection, schedule: Q01DX001 (ip), vehicle: saline with Tween-80 103 % of control | dose: 400.0 mg/kg/injection, schedule: Q01DX001 (ip), vehicle: saline with Tween-80 98 % of control

CC1=CC(=N\S(=O)(=O)c2ccccc2)/C2(Cl)CC(C)=C(C)CC2/C1=N/S(=O)(=O)c1ccccc1 (stereo not given)
inactive: dose: 50.0 mg/kg/injection, schedule: Q01DX001 (ip), vehicle: Klucel (hydroxypropylcellulose) (HPC) 98 % of control | [1] 95 % of control | [2] 103 % of control

S=C(NCc1ccco1)NCc1ccco1
inactive: dose: 155.0 mg/kg/injection, schedule: Q01DX Z (ip), vehicle: methylcellulose (MC) 92 % of control | dose: 233.0 mg/kg/injection, schedule: Q01DX Z (ip), vehicle: methylcellulose (MC) 100 % of control

COCCNC1=C(F)C(=O)C(NCCOC)=C(F)C1=O
inactive: dose: 3.12 mg/kg/injection, schedule: Q04DX003 (ip), vehicle: Klucel (hydroxypropylcellulose) (HPC) 90 % of control | dose: 6.25 mg/kg/injection, schedule: Q04DX003 (ip), vehicle: Klucel (hydroxypropylcellulose) (HPC) 111 % of control | dose: 12.5 mg/kg/injection, schedule: Q04DX003 (ip), vehicle: Klucel (hydroxypropylcellulose) (HPC) 98 % of control | dose: 25.0 mg/kg/injection, schedule: Q04DX003 (ip), vehicle: Klucel (hydroxypropylcellulose) (HPC) 95 % of control | dose: 50.0 mg/kg/injection, schedule: Q04DX003 (ip), vehicle: Klucel (hydroxypropylcellulose) (HPC) 95 % of control | [4] 97 % of control | dose: 150.0 mg/kg/injection, schedule: Q04DX003 (ip), vehicle: Klucel (hydroxypropylcellulose) (HPC) 94 % of control | dose: 225.0 mg/kg/injection, schedule: Q04DX003 (ip), vehicle: Klucel (hydroxypropylcellulose) (HPC) 94 % of control | dose: 335.0 mg/kg/injection, schedule: Q04DX003 (ip), vehicle: Klucel (hydroxypropylcellulose) (HPC) 95 % of control

CC1C(=O)C2(C)C3(C)C(=O)C(C)(C(c4ccccc4)=C3c3ccccc3)C2(c2ccccc2)C1c1ccccc1 (stereo not given) (tested in a mixture with another compound)
inactive: dose: 50.0 mg/kg/injection, schedule: Q01DX009 (ip), vehicle: saline with Tween-80 98 % of control | dose: 100.0 mg/kg/injection, schedule: Q01DX009 (ip), vehicle: saline with Tween-80 95 % of control | dose: 200.0 mg/kg/injection, schedule: Q01DX009 (ip), vehicle: saline with Tween-80 95 % of control

CCOC1=C(C)C(=O)C1C (stereo not given)
inactive: dose: 100.0 mg/kg/injection, schedule: Q01DX009 (ip), vehicle: saline 111 % of control | dose: 200.0 mg/kg/injection, schedule: Q01DX009 (ip), vehicle: saline 101 % of control | dose: 400.0 mg/kg/injection, schedule: Q01DX009 (ip), vehicle: saline 113 % of control

Cn1cnc2[nH]c(Cl)nc(=S)c21
inactive: [7] 95 % of control | [8] 92 % of control | [9] 95 % of control

NC(CSSCC(N)C(=O)O)C(=O)O (stereo not given)
inactive: dose: 100.0 mg/kg/injection, schedule: Q01DX001 (ip), vehicle: carboxymethylcellulose (CMC) 95 % of control | [4] 93 % of control | dose: 200.0 mg/kg/injection, schedule: Q01DX001 (ip), vehicle: carboxymethylcellulose (CMC) 94 % of control | [5] 93 % of control | dose: 400.0 mg/kg/injection, schedule: Q01DX001 (ip), vehicle: carboxymethylcellulose (CMC) 95 % of control | [6] 91 % of control

CC(=O)OC1CCCc2c(O)c3c(c(O)c21)C(=O)c1ccccc1C3=O (stereo not given)
inactive: [7] 93 % of control | [8] 93 % of control | [9] 91 % of control
